According to US9328092B2, “Acrylamide compounds as histamine H3 receptor ligands” (Suven Life Sciences Limited, priority 2012, dated 2016):
Structures can show the parent of a compound that is named as a salt. Each block holds one compound with its values, some of them ahead of it.

What was measured:
[1] = Rodent pharmacokinetic study; type: in vivo; details: rat, whole blood, Wistar rats/Male; for AUC(0-t) / Cmax / Tmax / half-life: blood; for bioavailability: 3 mg/kg Per-Oral vs 1 mg/kg Intravenous
Procedure: Male Wistar rats (230-280 grams) were used as experimental animals. Three to five animals were housed in each cage. One day prior to dosing day, male wistar rats (225-250 grams) were anesthetized with isoflurane for surgical placement of jugular vein catheter. Animals were kept fasted over night and maintained on a 12 hours light/dark cycle. Three rats were dosed with compounds of formula (I) orally (3 mg/Kg) and intravenously (1 mg/kg) in two separate set of animals (n=3 rats/group). At each time point, blood was collected by jugular vein. Blood was stored frozen at […] until analysis. The concentrations of the compounds of formula (I) in blood were determined using LC-MS/MS method. Schedule time points: Pre dose 0.08 (only for i.v.) 0.25, 0.5, 1, 2, 4, 6, 8, and 24 hours after dosing (n=3). The compounds of formula (I) were quantified in blood by validated LC-MS/MS method using acetonitrile precipitation technique. The compounds of formula (I) were quantified in the calibration range of 1-1000 ng/mL in blood. Study samples were analyzed using calibration samples in the batch and quality control samples spread across the batch. Pharmacokinetic parameters Cmax, Tmax, AUCt, T1/2 and Bioavailability were calculated by non-compartmental model using software Pheonix WinNonlin version 6.0.1.

[2] = target: Human or Rat Histamine H3 Receptor (UniProt Q9Y5N1); experiment: Binding assay for human or rat histamine H3 receptor ([3H] R-α-methylhistamine displacement); details: [3H] R-α-methylhistamine 3.0 nM, rat brain frontal cortex or recombinant human receptor in CHO cells (source for table not stated)
Procedure: Binding and Functional Assays for Human or Rat Histamine H3 Receptor
Compounds can be evaluated according to the following procedures.
• Receptor source: Rat brain frontal cortex or recombinant human cDNA expressed in CHO cells • Radioligand: [^3H] R-α-methylhistamine • Final ligand concentration—[3.0 nM] • Non-specific determinant: R-α-methylhistamine (100 μM) • Reference compound: R-α-methylhistamine • Positive control: R-α-methylhistamine Incubation Conditions:
Increasing concentrations of test compounds or standard were incubated with membrane receptors and radioligand in 5 mM MgCl2 and 50 mM TRIS-HCl (pH 7.4) for 60 minutes at room temperature. The reaction was terminated by rapid vacuum filtration onto the glass fiber filters. Radioactivity trapped onto the filters was determined and compared to the control values in order to ascertain any interactions of the test compound(s) with either cloned human or rat receptor binding site.

Male Wister rats = experiment: Object recognition task model; type: in vivo; details: p.o.; for Exploration time mean ± S.E.M, Familiar object / Exploration time mean ± S.E.M, Novel object: choice trial T2
Procedure: The cognition enhancing properties of compounds of this invention were estimated using a model of animal cognition: the object recognition task model.
Male Wister rats (230-280 grams) were used as experimental animals. Four animals were housed in each cage. Animals were kept on 20% food deprivation before one day and given water ad libitum throughout the experiment and maintained on a 12 hours light/dark cycle. Also the rats were habituated to individual arenas for 1 hour in the absence of any objects.
One group of 12 rats received vehicle (1 mL/Kg) orally and another set of animals received compound of the formula (I) either orally or i.p., before one hour of the familiar (T1) and choice trial (T2).
The experiment was carried out in a 50×50×50 cm open field made up of acrylic. In the familiarization phase, (T1), the rats were placed individually in the open field for 3 minutes, in which two identical objects (plastic bottles, 12.5 cm height×5.5 cm diameter) covered in yellow masking tape alone (a1 and a2) were positioned in two adjacent corners, 10 cm. from the walls. After 24 hours of the (T1) trial for long-term memory test, the same rats were placed in the same arena as they were placed in T1 trial. Choice phase (T2) rats were allowed to explore the open field for 3 minutes in presence of one familiar object (a3) and one novel object (b) (Amber color glass bottle, 12 cm high and 5 cm in diameter). Familiar objects presented similar textures, colors and sizes. During the T1 and T2 trial, explorations of each object (defined as sniffing, licking, chewing or having moving vibrissae whilst directing the nose towards the object at a distance of less than 1 cm) were recorded separately by stopwatch. Sitting on an object was not regarded as exploratory activity, however, it was rarely observed.
T1 is the total time spent exploring the familiar objects (a1+a2).
T2 is the total time spent exploring the familiar object and novel object (a3+b).
The object recognition test was performed as described by Ennaceur, A., Delacour, J., 1988, A new one-trial test for neurobiological studies of memory in rats—Behavioural data, Behav. Brain Res., 31, 47-59.

[3] = Rodent brain penetration study; type: in vivo, Male Wistar rats; details: Wister rats/Male, 3 mg/kg, Per-oral; for Kp at 1 h: male, Wistar, rat, brain homogenate / whole blood, po, 1 h post dose, read-out: Brain Penetration @ 1 h post dose (Cbrain/Cblood)
Procedure: Male Wistar rats (230-280 grams) were used as experimental animals. Three animals were housed in each cage. Animals were given water and food ad libitum throughout the experiment and maintained on a 12 hours light/dark cycle. Brain penetration was determined in discrete manner in rats. One day prior to dosing day, male wistar rats (225-250 grams) were acclimatized. After acclimatization, the rats were grouped according to the weight in each group, 3 animals were kept in individual cage and allowed free access to food and water. At each time point (05, 1, and 2 hrs) n=3 animals were used. The compounds of formula (I) were dissolved in water and administered orally at (free base) 3 mg/kg. Blood samples were removed via, cardiac puncture by using light ether anesthesia the animals were sacrificed to collect brain tissue. Brain samples were homogenized and stored frozen at −20° C. until analysis. The concentrations of the compounds of formula (I) in blood and brain were determined using LC-MS/MS method. The compounds of formula (I) were quantified in blood and brain homogenate by validated LC-MS/MS method using acetonitrile precipitation technique. The compounds of formula (I) were quantified in the calibration range of 1-1000 ng/mL in blood and brain homogenate. Study samples were analyzed using calibration samples in the batch and quality control samples spread across the batch. Extents of brain to blood ratios were calculated (Cbrain/Cblood).

Compound: O=C(C=Cc1ccc(OC2CCN(C3CCC3)CC2)cc1)N1CCOCC1.O=C(O)/C=C/C(=O)O [Example 1, 3-[4-(1-Cyclobutylpiperidin-4-yloxy)phenyl]-1-(morpholin-4-yl)prop-2-ene-1-one fumarate salt]
AUC(0-t) ([1]; 1 mg/kg, Intravenous): 208 ± 7 ng·h/mL
Cmax ([1]; 1 mg/kg, Intravenous): 214 ± 25 ng/mL
Tmax ([1]; 1 mg/kg, Intravenous): 4.8 min
half-life ([1]; 1 mg/kg, Intravenous): 63 ± 4.2 min
bioavailability [1]: 29 ± 2%
AUC(0-t) ([1]; 3 mg/kg, Per-Oral): 176 ± 10 ng·h/mL
Cmax ([1]; 3 mg/kg, Per-Oral): 106 ± 5 ng/mL
Tmax ([1]; 3 mg/kg, Per-Oral): 30 min
half-life ([1]; 3 mg/kg, Per-Oral): 93.6 ± 25.8 min
Ki ([2]; fumarate salt): 1.32 nM
Inference (Male Wister rats; 1 mg/kg): Active
Exploration time mean ± S.E.M, Familiar object (Male Wister rats; 1 mg/kg): 5.96 ± 1.03 s
Exploration time mean ± S.E.M, Novel object (Male Wister rats; 1 mg/kg): 14.86 ± 1.92 s
Brain Penetration @ 1 h post dose (Cbrain/Cblood) [3]: 1.40

Compound: Cc1cc(OC2CCN(C3CCC3)CC2)ccc1C=CC(=O)N1CCOCC1 [Example 8, 3-[4-(1-Cyclobutylpiperidin-4-yloxy)-2-methylphenyl]-1-(morpholin-4-yl)prop-2-ene-1-one L(+)-Tartarate salt]
Ki [2]: 6.34 nM

Compound: Cc1cc(OC2CCN(C(C)C)CC2)ccc1C=CC(=O)N1CCOCC1 [Example 9, 3-[4-(1-Isopropylpiperidin-4-yloxy)-2-methylphenyl]-1-(morpholin-4-yl)prop-2-ene-1-one L(+)-Tartarate salt]
Ki [2]: 13.1 nM

Compound: O=C(C=Cc1ccc(OC2CCN(C3CCC3)CC2)cc1)N1CCOCC1.O=C(O)C(O)C(O)C(=O)O [Example 10, 3-[4-(1-Cyclobutylpiperidin-4-yloxy)phenyl]-1-(morpholin-4-yl)prop-2-ene-1-one L(+)-Tartarate salt]
AUC(0-t) ([1]; 1 mg/kg, Intravenous): 222 ± 33 ng·h/mL
Cmax ([1]; 1 mg/kg, Intravenous): 285 ± 46 ng/mL
Tmax ([1]; 1 mg/kg, Intravenous): 4.8 min
half-life ([1]; 1 mg/kg, Intravenous): 48 ± 3 min
bioavailability [1]: 58 ± 6%
AUC(0-t) ([1]; 3 mg/kg, Per-Oral): 387 ± 38 ng·h/mL
Cmax ([1]; 3 mg/kg, Per-Oral): 290 ± 32 ng/mL
Tmax ([1]; 3 mg/kg, Per-Oral): 15 min
half-life ([1]; 3 mg/kg, Per-Oral): 51 ± 8.4 min
Ki [2]: 3.43 nM
Kp at 1 h [3]: 1.36

Compound: COc1cc(C=CC(=O)N2CCOCC2)ccc1OC1CCN(C2CCC2)CC1 [Example 11, 3-[4-(1-Cyclobutylpiperidin-4-yloxy)-3-methoxyphenyl]-1-(morpholin-4-yl)prop-2-ene-1-one L(+)-Tartarate salt]
Ki [2]: 77.2 nM

Compound: CC(C)N1CCC(Oc2ccc(C=CC(=O)N3CCOCC3)cc2Br)CC1 [Example 19, 3-[3-Bromo-4-(1-isopropylpiperidin-4-yloxy)phenyl]-1-(morpholin-4-yl)prop-2-ene-1-one]
Ki [2]: 17 nM

Compound: O=C(C=Cc1ccc(OC2CCN(C3CCC3)CC2)c(Br)c1)N1CCOCC1 [Example 20, 3-[3-Bromo-4-(1-cyclobutylpiperidin-4-yloxy)phenyl]-1-(morpholin-4-yl)prop-2-ene-1-one]
Ki [2]: 5.97 nM

Compound: O=C(C=Cc1ccc(OC2CCN(CC3CC3)CC2)c(Br)c1)N1CCOCC1 [Example 22, 3-[3-Bromo-4-(1-cyclopropylmethylpiperidin-4-yloxy)phenyl]-1-(morpholin-4-yl)prop-2-ene-1-one]
Ki [2]: 52.6 nM

Compound: O=C(C=Cc1ccc(OC2CCN(C3CCC3)CC2)cc1Cl)N1CCOCC1 [Example 25, 3-[2-Chloro-4-(1-cyclobutylpiperidin-4-yloxy)phenyl]-1-(morpholin-4-yl)prop-2-ene-1-one]
Ki [2]: 29.7 nM

More lines, in order of falling Ki [2], values ahead:

Ki [2]: 32.4 nM
Compound: CC(C)CN1CCC(Oc2ccc(C=CC(=O)N3CCOCC3)cc2)CC1 [Example 18, 3-[4-(1-Isobutylpiperidin-4-yloxy)phenyl]-1-(morpholin-4-yl)prop-2-ene-1-one]

Ki [2]: 17.5 nM
Compound: CC(C)N1CCC(Oc2ccc(C=CC(=O)N3CCOCC3)c(F)c2)CC1 [Example 6, 3-[2-Fluoro-4-(1-isopropylpiperidin-4-yloxy)phenyl]-1-(morpholin-4-yl)prop-2-ene-1-one L(+)-Tartarate salt]

AUC(0-t) ([1]; 1 mg/kg, Intravenous): 173 ± 13 ng·h/mL
Cmax ([1]; 1 mg/kg, Intravenous): 220 ± 10 ng/mL
Tmax ([1]; 1 mg/kg, Intravenous): 4.8 min
half-life ([1]; 1 mg/kg, Intravenous): 36 ± 12 min
bioavailability [1]: 35 ± 5%
AUC(0-t) ([1]; 3 mg/kg, Per-Oral): 184 ± 25 ng·h/mL
Cmax ([1]; 3 mg/kg, Per-Oral): 128 ± 6 ng/mL
Tmax ([1]; 3 mg/kg, Per-Oral): 25.2 ± 8.4 min
half-life ([1]; 3 mg/kg, Per-Oral): 66 ± 18 min
Ki [2]: 7.9 nM
Kp at 1 h [3]: 0.92
Compound: O=C(C=Cc1ccc(OC2CCN(C3CCC3)CC2)nc1)N1CCOCC1.O=C(O)C(O)C(O)C(=O)O [Example 5, 3-[2-(1-Cyclobutylpiperidin-4-yloxy)pyridin-5-yl]-1-(morpholin-4-yl)prop-2-ene-1-one L(+)-Tartarate salt]
Inference (Male Wister rats; 3 mg/kg): Active
Exploration time mean ± S.E.M, Familiar object (Male Wister rats; 3 mg/kg): 9.64 ± 2.22 s
Exploration time mean ± S.E.M, Novel object (Male Wister rats; 3 mg/kg): 15.53 ± 2.36 s

Ki [2]: 7.82 nM
Compound: O=C(C=Cc1ccc(OC2CCN(C3CCC3)CC2)nc1)N1CCCCC1 [Example 4, 3-[2-(1-Cyclobutylpiperidin-4-yloxy)pyridin-5-yl]-1-(piperidin-1-yl)prop-2-ene-1-one L(+)-Tartarate salt]

AUC(0-t) ([1]; 1 mg/kg, Intravenous): 167 ± 47 ng·h/mL
Cmax ([1]; 1 mg/kg, Intravenous): 311 ± 110 ng/mL
Tmax ([1]; 1 mg/kg, Intravenous): 4.8 min
half-life ([1]; 1 mg/kg, Intravenous): 36 ± 12 min
bioavailability [1]: 9 ± 5%
AUC(0-t) ([1]; 3 mg/kg, Per-Oral): 49 ± 29 ng·h/mL
Cmax ([1]; 3 mg/kg, Per-Oral): 57 ± 36 ng/mL
Tmax ([1]; 3 mg/kg, Per-Oral): 15 min
half-life ([1]; 3 mg/kg, Per-Oral): 54 ± 36 min
Ki [2]: 2.96 nM
Kp at 1 h [3]: 2.51
Compound: O=C(C=Cc1ccc(OC2CCN(C3CCC3)CC2)cc1F)N1CCOCC1.O=C(O)C(O)C(O)C(=O)O [Example 7, 3-[2-Fluoro-4-(1-cyclobutylpiperidin-4-yloxy)phenyl]-1-(morpholin-4-yl)prop-2-ene-1-one L(+)-Tartarate salt]

Ki [2]: 1.82 nM
Compound: O=C(C=Cc1ccc(OC2CCN(C3CCC3)CC2)cc1)N1CCCCC1 [Example 2, 3-[4-(1-Cyclobutylpiperidin-4-yloxy)phenyl]-1-(piperidin-1-yl)prop-2-ene-1-one hydrochloride salt]

Ki [2]: 1.4 nM
Compound: O=C(C=Cc1ccc(OC2CCN(C3CCC3)CC2)cc1)N1CCS(=O)(=O)CC1 [Example 3, 3-[4-(1-Cyclobutylpiperidin-4-yloxy)phenyl]-1-(1,1-dioxothiomorpholin-4-yl)prop-2-ene-1-one hydrochloride salt]
